Data on 21 compounds can be found in BindingDB's records for doi:10.1016/s0960-894x(99)00360-1 (Parke-Davis Pharmaceutical Research, 1999).

The assay has as its target T1, Dimer of Gag-Pol polyprotein [489-587] (Human immunodeficiency virus 1, UniProt P12497).
T1 construct: 489-587
Kind of assay: Protease Inhibition Assay. The settings on record: pH 6.2; 37 °C. As to the method: For determination of IC50 values, HIV-1 protease was added to assay buffer containing inhibitor and the substrate (H-His-Lys-Ala-Arg-Val-Leu- (p-NO2) Phe-Glu-Ala-norleucine-Ser-NH2). The Leu- (p-NO2) Phe bond of the substrate was cleaved by the enzyme, and the substrate and products were separated by reversed-phase HPLC. Absorbance was measured at 220 nm, peak areas were determined, and percentage conversion to product was calculated.
Take `Cc1cc(SC2C(=O)CC(CCc3ccc(O)cc3)(C(C)C)OC2=O)c(C(C)(C)C)cc1OS(=O)(=O)N1CCN(C)CC1` (stereo unspecified) [5-tert-butyl-4-({4-hydroxy-6-[2-(4-hydroxyphenyl)ethyl]-2-oxo-6-(propan-2-yl)-5,6-dihydro-2H-pyran-3-yl}sulfanyl)-2-methylphenyl 4-methylpiperazine-1-sulfonate]: the 50% inhibitory concentration (IC50) – broadly, the concentration that gives 50% inhibition – amounted to 3.1 nM. This counts as single-digit nanomolar.
The figure for `CCNS(=O)(=O)Oc1cc(C(C)(C)C)c(SC2C(=O)CC(C)(CCc3ccc(O)cc3)OC2=O)cc1C` (stereo unspecified) [5-tert-butyl-4-({4-hydroxy-6-[2-(4-hydroxyphenyl)ethyl]-6-methyl-2-oxo-5,6-dihydro-2H-pyran-3-yl}sulfanyl)-2-methylphenyl N-ethylsulfamate] is 2.3 nM; for `CCNS(=O)(=O)Oc1cc(C(C)(C)C)c(SC2C(=O)CC(CCc3ccc(O)cc3)(C(C)C)OC2=O)cc1C` (stereo unspecified) [6-Alkyl-5,6-Dihydropyran-2-one 20] it is 4.9 nM.
In the case of `Cc1cc(SC2C(=O)CC(CCc3ccc(O)cc3)(C(C)C)OC2=O)c(C(C)(C)C)cc1OS(=O)(=O)N(C)C` (stereo unspecified) [6-Alkyl-5,6-Dihydropyran-2-one 22] it was 3.4 nM; in that of `CCNS(=O)(=O)Oc1cc(C(C)(C)C)c(SC2C(=O)CC(CCc3ccc(O)cc3)(c3ccccc3)OC2=O)cc1C` (stereo unspecified) [5-tert-butyl-4-({4-hydroxy-6-[2-(4-hydroxyphenyl)ethyl]-2-oxo-6-phenyl-5,6-dihydro-2H-pyran-3-yl}sulfanyl)-2-methylphenyl N-ethylsulfamate], 26 nM.
In turn, `CCNS(=O)(=O)Oc1cc(C(C)(C)C)c(SC2C(=O)CC(CCc3ccc(N)cc3)(C(C)C)OC2=O)cc1C` (stereo unspecified) [4-({6-[2-(4-aminophenyl)ethyl]-4-hydroxy-2-oxo-6-(propan-2-yl)-5,6-dihydro-2H-pyran-3-yl}sulfanyl)-5-tert-butyl-2-methylphenyl N-ethylsulfamate] came in with an IC50 of 4.3 nM. This IC50 lies about 6-fold lower than the previous one.
The compound `Cc1cc(SC2C(=O)CC(CCc3ccc(O)cc3)(C(C)C)OC2=O)c(C(C)(C)C)cc1OS(=O)(=O)N1CCOCC1` (stereo unspecified) [5-tert-butyl-4-({4-hydroxy-6-[2-(4-hydroxyphenyl)ethyl]-2-oxo-6-(propan-2-yl)-5,6-dihydro-2H-pyran-3-yl}sulfanyl)-2-methylphenyl morpholine-4-sulfonate] showed an IC50 of 2.6 nM. This IC50 is about 1.7-fold lower than that of the compound before.
For `CCNS(=O)(=O)Oc1cc(C(C)(C)C)c(SC2C(=O)CC(CCc3ccc(O)cc3)(C3CCCCC3)OC2=O)cc1C` (stereo unspecified) [5-tert-butyl-4-({6-cyclohexyl-4-hydroxy-6-[2-(4-hydroxyphenyl)ethyl]-2-oxo-5,6-dihydro-2H-pyran-3-yl}sulfanyl)-2-methylphenyl N-ethylsulfamate], the IC50 worked out at 4.8 nM. This IC50 lies about 1.8-fold higher than the previous one.
Regarding `Cc1cc(SC2C(=O)CC(C)(CCc3ccc(O)cc3)OC2=O)c(C(C)(C)C)cc1OS(N)(=O)=O` (stereo unspecified) [[5-tert-butyl-4-({4-hydroxy-6-[2-(4-hydroxyphenyl)ethyl]-6-methyl-2-oxo-5,6-dihydro-2H-pyran-3-yl}sulfanyl)-2-methylphenyl] sulfamate], the IC50 stood at 1.8 nM.
Compound `Cc1cc(SC2C(=O)CC(CCc3ccc(O)cc3)(C3CCCCC3)OC2=O)c(C(C)(C)C)cc1OS(=O)(=O)N(C)C` (stereo unspecified) [5-tert-butyl-4-({6-cyclohexyl-4-hydroxy-6-[2-(4-hydroxyphenyl)ethyl]-2-oxo-5,6-dihydro-2H-pyran-3-yl}sulfanyl)-2-methylphenyl N,N-dimethylsulfamate] registered an IC50 of 20 nM.
`Cc1cc(SC2C(=O)CC(CCc3ccc(N)cc3)(C(C)C)OC2=O)c(C(C)(C)C)cc1OS(=O)(=O)N1CCN(C)CC1` (stereo unspecified) [4-({6-[2-(4-aminophenyl)ethyl]-4-hydroxy-2-oxo-6-(propan-2-yl)-5,6-dihydro-2H-pyran-3-yl}sulfanyl)-5-tert-butyl-2-methylphenyl 4-methylpiperazine-1-sulfonate] displayed an IC50 of 1 nM.
In turn, `Cc1cc(SC2C(=O)CC(C)(CCc3ccc(O)cc3)OC2=O)c(C(C)(C)C)cc1O` (stereo unspecified) [6-Alkyl-5,6-Dihydropyran-2-one 13] registered an IC50 of 6.5 nM. Compared with the last compound, the IC50 is about 6.5-fold higher.
Compound `Cc1cc(SC2C(=O)CC(C)(CCc3ccc(O)cc3)OC2=O)c(C(C)(C)C)cc1OS(=O)(=O)N(C)C` (stereo unspecified) [5-tert-butyl-4-({4-hydroxy-6-[2-(4-hydroxyphenyl)ethyl]-6-methyl-2-oxo-5,6-dihydro-2H-pyran-3-yl}sulfanyl)-2-methylphenyl N,N-dimethylsulfamate] yielded an IC50 of 1.6 nM.
`CCCNS(=O)(=O)Oc1cc(C(C)(C)C)c(SC2C(=O)CC(CCc3ccc(O)cc3)(C(C)C)OC2=O)cc1C` (stereo unspecified) [5-tert-butyl-4-({4-hydroxy-6-[2-(4-hydroxyphenyl)ethyl]-2-oxo-6-(propan-2-yl)-5,6-dihydro-2H-pyran-3-yl}sulfanyl)-2-methylphenyl N-propylsulfamate] returned an IC50 of 3 nM.
Compound `CCCNS(=O)(=O)Oc1cc(C(C)(C)C)c(SC2C(=O)CC(C)(CCc3ccc(O)cc3)OC2=O)cc1C` (stereo unspecified) [5-tert-butyl-4-({4-hydroxy-6-[2-(4-hydroxyphenyl)ethyl]-6-methyl-2-oxo-5,6-dihydro-2H-pyran-3-yl}sulfanyl)-2-methylphenyl N-propylsulfamate] came in with an IC50 of 6.2 nM. Against the preceding compound, the IC50 is about 2.1-fold higher.
`CNS(=O)(=O)Oc1cc(C(C)(C)C)c(SC2C(=O)CC(CCc3ccc(O)cc3)(C(C)C)OC2=O)cc1C` (stereo unspecified) [5-tert-butyl-4-({4-hydroxy-6-[2-(4-hydroxyphenyl)ethyl]-2-oxo-6-(propan-2-yl)-5,6-dihydro-2H-pyran-3-yl}sulfanyl)-2-methylphenyl N-methylsulfamate] gave an IC50 of 1.2 nM.
As to `Cc1cc(SC2C(=O)CC(CCc3ccccc3)(C(C)C)OC2=O)c(C(C)(C)C)cc1OS(=O)(=O)N1CCN(C)CC1` (stereo unspecified) [5-tert-butyl-4-{[4-hydroxy-2-oxo-6-(2-phenylethyl)-6-(propan-2-yl)-5,6-dihydro-2H-pyran-3-yl]sulfanyl}-2-methylphenyl 4-methylpiperazine-1-sulfonate], the IC50 is 3.9 nM.
`Cc1cc(SC2C(=O)CC(CCc3ccc(O)cc3)(C3CCCCC3)OC2=O)c(C(C)(C)C)cc1OS(=O)(=O)N1CCN(C)CC1` (stereo unspecified) [5-tert-butyl-4-({6-cyclohexyl-4-hydroxy-6-[2-(4-hydroxyphenyl)ethyl]-2-oxo-5,6-dihydro-2H-pyran-3-yl}sulfanyl)-2-methylphenyl 4-methylpiperazine-1-sulfonate] displayed an IC50 of 9.7 nM. Compared with the last compound, the IC50 is about 2.5-fold higher.
With `CCNS(=O)(=O)Oc1cc(C(C)(C)C)c(SC2C(=O)CC(CCc3ccccc3)(C(C)C)OC2=O)cc1C` (stereo unspecified), half-maximal inhibition (IC50) required 8.9 nM.
The compound `Cc1cc(SC2C(=O)CC(CCc3ccc(N)cc3)(C(C)C)OC2=O)c(C(C)(C)C)cc1OS(=O)(=O)N(C)C` (stereo unspecified) [4-({6-[2-(4-aminophenyl)ethyl]-4-hydroxy-2-oxo-6-(propan-2-yl)-5,6-dihydro-2H-pyran-3-yl}sulfanyl)-5-tert-butyl-2-methylphenyl N,N-dimethylsulfamate] gave an IC50 of 3.9 nM.
`Cc1cc(SC2C(=O)CC(C)(CCc3ccc(O)cc3)OC2=O)c(C(C)(C)C)cc1OS(=O)(=O)N1CCN(C)CC1` (stereo unspecified) [5-tert-butyl-4-({4-hydroxy-6-[2-(4-hydroxyphenyl)ethyl]-6-methyl-2-oxo-5,6-dihydro-2H-pyran-3-yl}sulfanyl)-2-methylphenyl 4-methylpiperazine-1-sulfonate] had an IC50 of 7.1 nM. Compared with the last compound, the IC50 is about 1.8-fold higher.
